Results: patent publication US9359322B2, “C-linked glucuronide of N-(4-hydroxybenzyl) retinone, analogs thereof, and methods of using the same to inhibit neoplastic cell growth” (Wisconsin Alumni Research Foundation, priority 2005, dated 2016)

Tests used:
[1] = Terminal plasma drug levels (plasma retinoid assay, HPLC); assay type: in vivo, rat; details: day 22 of treatment; 2 mmol/kg diet; ± SEM
Method: Plasma Retinoid Assay. To 500 μL of plasma was added 150 μL of ethanol containing 0.75 μg of internal standard (N-(4-chlorophenyl) retinamide). After mixing 30 sec., 500 μL of ethyl acetate was added followed by 1 min. of mixing and centrifugation for 5 minutes at 1000 rpm in an IEC CL centrifuge. The ethyl acetate layer was removed and syringe filtered through a 0.45 um filter. The ethyl acetate extraction was repeated two more times. The combined extracts were evaporated and the residue reconstituted in 100 μL of methanol. The methanol extract (20 μL) was analyzed by HPLC on a Beckman Instruments model 127 instrument equipped with a model 166 UV detector. Chromatography was done on a precolumn equipped 250×4.6 mm Bechman Ultrasphere ODS column with an 85% methanol/water mobile phase (both containing 10 mM ammonium acetate) flowing at 1 mL/min. Analysis for both internal standard and retinol was conducted at 350 nm and internal standard recoveries and retinol levels were determined by comparison with standard curves, with adjustment of the retinol level based on recovery. Recoveries of internal standard averaged ca. 78%. […] In the 4-HPR treated group, plasma levels of this retinoid were evaluated simultaneously in the same samples as above. In order to avoid interfering substances, plasma treatment retinoid levels for RA and 4-HBRCG were measured using the above system and a step gradient of 75% methanol for 15 min. followed by 85% methanol for 40 minutes.

[2] = Plasma triglyceride measurement; assay type: in vivo, rat; details: 2 mmol/kg diet, 22 days; FIG. 2A
Method: Plasma Triglyceride Measurement. Bloods were drawn from anesthetized animals in the presence of EDTA as an anticoagulant, and the resulting plasma was used for the measurement of plasma “true” triglyceride levels using a kit from Sigma-Aldrich (Saint Louis, Mo.). Briefly, the total plasma triglyceride and glycerol concentrations were determined, and the glycerol component was subtracted from the total plasma triglyceride measurement to obtain the “true” serum triglyceride concentration.

[3] = tested on: MCF-7 human breast cancer cells; assay: Growth inhibition of MCF-7 human breast cancer cells; assay type: cell-based; details: 10^−5 M, 8-day period; FIG. 5
Method: Inhibition of MCF-7 human breast cancer cell growth over an 8-day period was used as a means to assess the activity of 4-HBRCG and the analog 4-HBRCGlucose.
Growth inhibition of MCF-7 human breast cancer cells. MCF-7 cells were obtained from the American Type Culture Collection, Manassas, Va. They were maintained in DMEM medium supplemented with 4 g/L glucose, 3.7 g/L sodium bicarbonate and 10% heat-inactivated fetal calf serum. Cells were passaged into 12-well plates, cultured for 24 hours, after which time they were dosed with vehicle (0.2% ethanol) or retinoids; medium was changed and fresh vehicle or retinoids were added daily. Cells were harvested and the number of live cells was assessed using fluorescein diacetate, which yields a fluorescent product upon cleavage by metabolically active cells. Using fluorescent microscopy, at least 200 cells/well were counted with a hemacytometer.

RARγ = molecular target: T1, RARγ (Homo sapiens, UniProt P13631); assay: Nuclear retinoid receptor binding assay, competition with [3H]all-trans RA; details: competition for [3H]atRA; present work
T1 sequence (P13631 1-454): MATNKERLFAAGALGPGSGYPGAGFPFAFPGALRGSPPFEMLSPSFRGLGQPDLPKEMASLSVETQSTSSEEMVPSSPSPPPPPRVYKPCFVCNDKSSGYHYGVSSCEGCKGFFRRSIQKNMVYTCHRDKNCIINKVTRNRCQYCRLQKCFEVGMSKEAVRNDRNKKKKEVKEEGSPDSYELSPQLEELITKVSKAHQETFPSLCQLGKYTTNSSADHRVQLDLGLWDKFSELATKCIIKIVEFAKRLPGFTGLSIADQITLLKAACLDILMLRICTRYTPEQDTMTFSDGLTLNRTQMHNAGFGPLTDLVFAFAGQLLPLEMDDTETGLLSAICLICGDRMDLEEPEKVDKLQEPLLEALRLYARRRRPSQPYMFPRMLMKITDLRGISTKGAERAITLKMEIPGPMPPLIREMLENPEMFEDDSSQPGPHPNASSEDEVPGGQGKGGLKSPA
Method: (§1) Nuclear Retinoid Receptor Binding Assay. Competition of 3 and 7 and 4-HBRCGlucose with [^3H]-all-trans-RA (4.2-4.6 nM) for binding to RARβ and RARγ and with [^3H]-9-cis RA (1.9 nM) for binding to RXRγ was determined using an in vitro ligand binding assay.^41, 42 [^3H]-all-trans-RA (40.5 Ci/mmole) or [^3H]-9-cis-RA (69.4 Ci/mmole) was added to receptor-containing extracts in the absence and presence of increasing concentrations of competing ligands at 4° C. for 3 hr. A hydroxylapatite (HAP) assay was used to separate ligand bound to receptor from that free in solution, and the radioactivity associated with the HAP pellet was measured by scintillation counting.

RARβ = molecular target: T2, RARβ (Homo sapiens, UniProt P10826); assay: as above; details: competition for [3H]atRA; present work
T2 sequence (P10826 1-455): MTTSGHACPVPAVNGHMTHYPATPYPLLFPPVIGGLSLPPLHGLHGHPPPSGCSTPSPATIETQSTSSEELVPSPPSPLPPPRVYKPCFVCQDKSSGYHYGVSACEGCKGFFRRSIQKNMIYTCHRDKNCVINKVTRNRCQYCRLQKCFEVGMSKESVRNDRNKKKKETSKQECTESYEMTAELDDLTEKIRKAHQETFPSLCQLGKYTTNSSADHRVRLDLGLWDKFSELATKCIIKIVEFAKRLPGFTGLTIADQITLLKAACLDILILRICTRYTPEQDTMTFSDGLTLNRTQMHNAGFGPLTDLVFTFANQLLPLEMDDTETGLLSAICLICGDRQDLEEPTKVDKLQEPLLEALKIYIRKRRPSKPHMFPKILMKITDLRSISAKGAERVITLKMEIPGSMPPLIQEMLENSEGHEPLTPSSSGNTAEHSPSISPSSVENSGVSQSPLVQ
Method: as §1

CYP26B1 mRNA = assay: Induction of CYP26B1 mRNA in lung (Q-PCR); assay type: in vivo, rat; details: at sacrifice, retinoid-fed rats, 2 mmol/kg diet; data not shown

Plasma retinoid concentration (terminal plasma drug level) [1]: 0.10 ± 0.01 µg/mL
Effect on serum triglyceride concentration [2]: did not cause this undesirable effect
Times less potent than atRA in binding to RARγ (RARγ): 1400 times
Times less potent than atRA in binding to RARβ (RARβ): 300 times
Compound: CC1=C(/C=C/C(C)=C/C=C/C(C)=C/C(=O)Cc2ccc(CC3OC(C(=O)O)C(O)C(O)C3O)cc2)C(C)(C)CCC1 [4-HBRCG (7), 2,6-Anhydro-7-deoxy-7-[4-(retinoylmethyl)-phenyl]-L-glycero-L-gulo-heptinoic acid]
Effect on number of live MCF-7 cells [3]: reduction in the number of live cells
Induction of CYP26B1 mRNA in lung (CYP26B1 mRNA): did not induce these cytochrome p450 mRNAs
